In one assay the test system is LPS-stimulated PBMCs. The assay is described as follows: Cytokine production in LPS-stimulated human PBMCs (ELISA). Format: cell-based. Conditions: for inhibition at 2.5 µM / inhibition at 25 µM: Homo sapiens, PBMC. From the text: MIF is secreted by monocytes/macrophages, activated T cells and several effector cells that play an important role in the perpetuation of inflammatory responses of the disease pathogenesis of several autoimmune and inflammatory disorders. MIF promotes the production of proinflammatory mediators such as tumor necrosis factor-α (TNF-α), interleukin (IL)-1β, IL-6 and IL-8 acting in an autocrine and paracrine function in the induction of proinflammatory responses. MIF has also been reported to stimulate the production of IL-17, a T helper 17 (Th17)-specific cytokine critical to the pathogenesis of several autoimmune and inflammatory diseases. […] Mono-Mac-6 Cells: The cellular efficacy of compound candidates is determined using the human monocytic cell line, Mono-Mac-6 cells (MM6 cells) as it has been shown that MM6 cells abundantly express MIF receptors CD74 and CXCR4. MIF-mediated signal transduction through these receptors may be important for the production of inflammatory mediators, including TNF-α, IL-1β, IL-6, IL-8, interferon-γ (IFN-γ) and prostaglandin E2 (PGE2) in these cells. To induce the production of inflammatory mediators, MM6 cells will be plated at a final concentration of 5×10^5 cells/ml in RPMI 1640 medium containing 1% heat-inactivated low-pyrogen fetal bovine serum, 2 mM GlutaMAX-I, 1% non-essential amino acids, 1% sodium pyruvate, 100 units/ml penicillin G and 100 μg/ml streptomycin (Gibco BRL Life Technologies). Cells will be stimulated with 100 ng/ml rhMIF purchased commercially or generated in house with or without inhibitor for 20 h at 37° C. with 5% CO2. The supernatants are stored at […] until they are to be assayed. The levels of inflammatory mediators will be determined using commercial :ELISA kits (eBiosciences). Human Peripheral Blood Mononuclear Cells (PBMCs): The cellular efficacy of compound candidates in inhibiting the production of proinflammatory mediators TNF-α, IL-1β, IL-6 and IL-8 following lipopolysaccharide (LPS) and rhMIF stimulation, and the production of T helper 17 (Th17)-specific cytokines IL-17F and IL-22 following anti-CD3/anti-CD28 stimulation, are determined in human PBMCs. To induce the production of proinflammatory cytokine mediators, cryopreserved human PBMCs (Cellular Technology Ltd.) are plated at a final concentration of 2×10^5 cells/ml in RPMI 1640 medium containing 1% heat-inactivated fetal bovine serum, 1% L-Glutamine and 1% Penicillin/Streptomycin (Lonza). Cells are pre-incubated with or without inhibitor compounds dissolved in DMSO for 1 hour, then stimulated with LPS (Sigma Aldrich) or rhMIF to yield final concentrations of <0.1% DMSO, 100 ng/ml LPS and the compound concentration of interest. The potency of the compound candidates in inhibiting cytokine production is compared, to other small molecule MIF inhibitor standards ISO-1 (EMD Chemicals) N-acetyl-p-benzoquinone imine (NAPQI) and Ibudilast (TCI America). Cells were incubated for 20 hours at 37° C., 5% CO2. For the Th17-specific cytokine production assay, cells are stimulated with 5 ug/mL plate immobilized anti-CD3 (eBioscience) and 2 ug/mL soluble anti-CD28 (eBioscience) in the presence or absence of inhibitor compounds dissolved in DMSO to yield final compound concentrations of interest at <0.1% DMSO. Cells were incubated for 72 hours at 37° C. and 5% CO2. The supernatants are stored at −20° C. until they are to be assayed by ELISA. Cell viability is determined using PrestoBlue™ Cell Viability Reagent (Invitrogen). The cytokine production levels of TNF-α, IL-1β, IL-6, IL-8, IL-17F and IL-22 are determined using commercial ELISA kits (eBiosciences). Human Rheumatoid Arthritis Synovial Fibroblast (RASF) Cell Line: RASF cells are cultured in Dulbecco's modified Eagle's medium with 15% FBS, 1% glutamine, and 1% penicillin/streptamycin (all from Gibco (Invitrogen), Gaithersburg, Md.). […]
On the technique in general: An ELISA detects its analyte on a solid surface through an enzyme-linked reagent.

The target in another assay is T1, Native human MIF (Homo sapiens, UniProt P14174).
T1 sequence (P14174 2-115 limits assumed): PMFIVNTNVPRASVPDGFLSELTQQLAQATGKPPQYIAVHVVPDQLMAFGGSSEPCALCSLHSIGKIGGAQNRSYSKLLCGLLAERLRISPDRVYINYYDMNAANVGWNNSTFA
As to the kind of experiment: MIF tautomerase activity assay (HPP substrate). Format: biochemical. Conditions: absorbance at 300 nm. The procedure:
The ability of candidate compounds to inhibit this tautomerase activity is quantitated by wing hydroxyphenyl pyruvic acid (HPP) as a substrate and following the increase in absorbance due to the enzymatic formation of the HPP enol-borate complex at 300 nm in the absence and presence of a test compound. The IC50 value of compounds was determined by plotting the initial velocities determined at 300 nm as a function of a test compound's concentration. Assays were carried out in a 96 or 384 well plate format.
Representative MIF inhibitors were tested in the assay described above and the results tabulated in Table 1 wherein “A” represents ≦1 μM; “B” represents >1 μM and ≦100 μM; “C” represents >100 μM

[1] abbreviates: LPS-stimulated PBMCs, compound at 2.5 uM, 1 hour preincubation, 20 hours, read-out: percent inhibition of IL-1β production.
Setting [2] is: LPS-stimulated PBMCs, compound at 2.5 uM, 1 hour preincubation, 20 hours, read-out: percent inhibition of IL-6 production.
Setting [3] is: LPS-stimulated PBMCs, compound at 2.5 uM, 1 hour preincubation, 20 hours, read-out: percent inhibition of IL-8 production.
Setting [4] is: LPS-stimulated PBMCs, compound at 2.5 uM, 1 hour preincubation, 20 hours, read-out: percent inhibition of TNF-α production.
Where [5] appears, read: LPS-stimulated PBMCs, compound at 25 uM, 1 hour preincubation, 20 hours, read-out: percent inhibition of IL-1β production.
Setting [6] is: LPS-stimulated PBMCs, compound at 25 uM, 1 hour preincubation, 20 hours, read-out: percent inhibition of IL-6 production.
[7] abbreviates: LPS-stimulated PBMCs, compound at 25 uM, 1 hour preincubation, 20 hours, read-out: percent inhibition of IL-8 production.
The mark [8] stands for this setting: LPS-stimulated PBMCs, compound at 25 uM, 1 hour preincubation, 20 hours, read-out: percent inhibition of TNF-α production.
Setting [9] is: read-out: percent inhibition of IL-1β production.
[10] abbreviates: read-out: percent inhibition of IL-6 production.
[11] abbreviates: read-out: percent inhibition of IL-8 production.
[12] abbreviates: read-out: percent inhibition of TNF-α production.
Setting [13] is: LPS-stimulated PBMCs, ISO-1 at 5.0 uM, 20 hours.
Where [14] appears, read: LPS-stimulated PBMCs, ISO-1 at 50 uM, 20 hours.

pIC50: −log10 of the molar value. Like-named read-outs stand apart in the source and are kept apart here.

In general, inhibition refers to the change of the read-out against control, counted positive when it falls. In general, pIC50 refers to the negative decadic logarithm of the IC50, by convention in mol/L. Read a high pIC50 as a low IC50. For `C=CC(=O)N1CCC(Nc2c(C#N)c(=O)n(C)c3ccccc23)CC1` [Compound 4, 4-(1-Acryloyl-piperidin-4-ylamino)-1-methyl-2-oxo-1,2-dihydro-quinoline-3-carbonitrile], the inhibition at 2.5 µM was 10 to 50% with LPS-stimulated PBMCs (setting [1]), 10 to 50% with LPS-stimulated PBMCs (setting [2]), less than 10% in the assay with LPS-stimulated PBMCs (setting [3]) and less than 10% in the assay with LPS-stimulated PBMCs (setting [4]). In addition, the inhibition at 25 µM with LPS-stimulated PBMCs (setting [5]) was 50 to 70%; with LPS-stimulated PBMCs (setting [6]), less than 10%; in the assay on LPS-stimulated PBMCs (setting [7]), less than 10%; in the assay on LPS-stimulated PBMCs (setting [8]), 10 to 50%. This compound also showed a pIC50 against Native human MIF of less than 4.00.
With `CC(C)C(=O)c1c(C(C)C)nn2ccccc12` [Ibudilast, reference compound], the inhibition at 2.5 µM in the assay on LPS-stimulated PBMCs (setting [1]) was 50 to 70%; in the assay on LPS-stimulated PBMCs (setting [2]), less than 10%; in the assay with LPS-stimulated PBMCs (setting [3]), less than 10%; with LPS-stimulated PBMCs (setting [4]), more than 70%. For the same compound, the inhibition at 25 µM was more than 70% in the assay on LPS-stimulated PBMCs (setting [5]), less than 10% in the assay on LPS-stimulated PBMCs (setting [6]), less than 10% with LPS-stimulated PBMCs (setting [7]) and more than 70% in the assay with LPS-stimulated PBMCs (setting [8]).
Take `N#Cc1c(NC2CN(C(=O)c3cccs3)C2)c2ccccc2n(Cc2ccc(F)cc2)c1=O` [Compound 8]: the inhibition at 2.5 µM in the assay on LPS-stimulated PBMCs (setting [1]) is 50 to 70%; in the assay with LPS-stimulated PBMCs (setting [2]) it was less than 10%; in the assay on LPS-stimulated PBMCs (setting [3]) it was less than 10%; in the assay with LPS-stimulated PBMCs (setting [4]), 10 to 50%. The inhibition at 25 µM was more than 70% with LPS-stimulated PBMCs (setting [5]), 10 to 50% with LPS-stimulated PBMCs (setting [6]), less than 10% with LPS-stimulated PBMCs (setting [7]) and 10 to 50% in the assay with LPS-stimulated PBMCs (setting [8]). At Native human MIF, this compound showed a pIC50 not below 6.00.
On to `N#Cc1c(NC2CN(C(=O)c3ccncc3)C2)c2ccccc2n(Cc2ccc(F)cc2)c1=O` [Compound 7], for which the inhibition at 2.5 µM is 50 to 70% in the assay on LPS-stimulated PBMCs (setting [1]), 10 to 50% with LPS-stimulated PBMCs (setting [2]), less than 10% with LPS-stimulated PBMCs (setting [3]) and 10 to 50% with LPS-stimulated PBMCs (setting [4]). Besides, the inhibition at 25 µM is more than 70% in the assay with LPS-stimulated PBMCs (setting [5]), less than 10% in the assay on LPS-stimulated PBMCs (setting [6]), less than 10% in the assay on LPS-stimulated PBMCs (setting [7]) and more than 70% with LPS-stimulated PBMCs (setting [8]). The compound further had a pIC50 on Native human MIF not below 6.00.
As for `CC(=O)N=C1C=CC(=O)C=C1` [NAPQI, N-acetyl-p-benzoquinone imine, reference compound], the inhibition at 2.5 µM in the assay with LPS-stimulated PBMCs (setting [9]) is 10 to 50%; in the assay on LPS-stimulated PBMCs (setting [10]), less than 10%; in the assay with LPS-stimulated PBMCs (setting [11]) it was less than 10%; in the assay with LPS-stimulated PBMCs (setting [12]) it was less than 10%. Further, the inhibition at 25 µM in the assay with LPS-stimulated PBMCs (setting [9]) is more than 70%; in the assay with LPS-stimulated PBMCs (setting [10]) it was less than 10%; in the assay with LPS-stimulated PBMCs (setting [11]) it was less than 10%; in the assay with LPS-stimulated PBMCs (setting [12]), more than 70%.
Consider `COC(=O)CC1CC(c2ccc(O)cc2)=NO1` (stereo not drawn) [ISO-1, reference compound], for which, in the assay with LPS-stimulated PBMCs (setting [13]), the “percent inhibition of IL-1β production” value is “F (“F” represents >50% inhibition and ≦70% inhibition)”; the “percent inhibition of IL-6 production” value is recorded as “D (“D” represents ≦10% inhibition)”; the “percent inhibition of IL-8 production” value is on record as “D (“D” represents ≦10% inhibition)”; the “percent inhibition of TNF-α production” value is “E (“E” represents >10% inhibition and ≦50% inhibition)”. In addition, in the assay on LPS-stimulated PBMCs (setting [14]), the “percent inhibition of IL-1β production” value is “G (“G” represents >70% inhibition)”; the “percent inhibition of IL-6 production” value is “F (“F” represents >50% inhibition and ≦70% inhibition)”; the “percent inhibition of IL-8 production” value is “E (“E” represents >10% inhibition and ≦50% inhibition)”; the “percent inhibition of TNF-α production” value is “G (“G” represents >70% inhibition)”.
As to `C=CC(=O)N1CC(Nc2c(C#N)c(=O)n(CCOCC)c3ccccc23)C1` [Compound 3, 4-(1-Acryloyl-azetidin-3-ylamino)-1-(2-ethoxy-ethyl)-2-oxo-1,2-dihydro-quinoline-3-carbonitrile], the inhibition at 2.5 µM is 50 to 70% in the assay on LPS-stimulated PBMCs (setting [1]), less than 10% in the assay on LPS-stimulated PBMCs (setting [2]), less than 10% in the assay with LPS-stimulated PBMCs (setting [3]) and less than 10% in the assay on LPS-stimulated PBMCs (setting [4]). In addition, the inhibition at 25 µM was 10 to 50% in the assay on LPS-stimulated PBMCs (setting [5]), less than 10% with LPS-stimulated PBMCs (setting [6]), less than 10% with LPS-stimulated PBMCs (setting [7]) and 10 to 50% in the assay on LPS-stimulated PBMCs (setting [8]). The pIC50 against Native human MIF was less than 4.00.
With `Cn1c(=O)c(C#N)c(NC2CN(C(=O)c3cccs3)C2)c2ccccc21` [Compound 6], the inhibition at 2.5 µM with LPS-stimulated PBMCs (setting [1]) is 10 to 50%; in the assay on LPS-stimulated PBMCs (setting [2]), 10 to 50%; with LPS-stimulated PBMCs (setting [3]) it was less than 10%; in the assay with LPS-stimulated PBMCs (setting [4]), 10 to 50%. Besides, the inhibition at 25 µM is 10 to 50% with LPS-stimulated PBMCs (setting [5]), 10 to 50% in the assay on LPS-stimulated PBMCs (setting [6]), less than 10% in the assay on LPS-stimulated PBMCs (setting [7]) and 10 to 50% in the assay on LPS-stimulated PBMCs (setting [8]). At Native human MIF, this compound showed a pIC50 not below 6.00.
In the case of `Cn1c(=O)c(C#N)c(NC2CCN(C(=O)c3cccs3)CC2)c2ccccc21` [Compound 5], the inhibition at 2.5 µM in the assay with LPS-stimulated PBMCs (setting [1]) was 50 to 70%; in the assay with LPS-stimulated PBMCs (setting [2]), 10 to 50%; in the assay on LPS-stimulated PBMCs (setting [3]) it was less than 10%; in the assay with LPS-stimulated PBMCs (setting [4]), 10 to 50%. For the same compound, the inhibition at 25 µM with LPS-stimulated PBMCs (setting [5]) was more than 70%; in the assay with LPS-stimulated PBMCs (setting [6]), less than 10%; in the assay on LPS-stimulated PBMCs (setting [7]), less than 10%; in the assay with LPS-stimulated PBMCs (setting [8]) it was 50 to 70%. Moreover, on Native human MIF, the pIC50 is not below 6.00.
